# Measured values: ChEMBL document CHEMBL5233277, “Oxidative Metabolism as a Modulator of Kratom's Biological Actions” (J Med Chem, 2021)
# Active and inactive are the calls of the source. The rule behind the calls is not given here.
# What was measured:
# Cytochrome P450 3A [1] = target: T1, Cytochrome P450 3A (Mus musculus, UniProt O09158+Q64464+Q64481+Q9JMA7); test: Metabolic stability in CYP3A KO C57BL/6J mouse liver microsomes assessed as CYP3A-mediated decomposition by measuring half life at 1 uM incubated for 60 mins in presence of ketoconazole by LC-MS/MS analysis; format: ADME, Microsome; settings: 1 h
# Mus musculus [2] = test: Antinociceptive activity in DOR knock out 129Sv6 mouse at 10 mg/kg, po measured after 15 mins; format: functional, organism-based
# [3] = Drug metabolism in human liver microsomes assessed as compound depletion at 1 uM incubated for 60 mins in presence of NADPH by LC-MS/MS analysis; format: ADME, Microsome; settings: 1 h
# Mus musculus [4] = test: Antinociceptive activity in KOR knock out C57BL/6J mouse at 45 mg/kg, po measured after 20 mins; format: functional, organism-based
# [5] = Drug metabolism in 129Sv6 mouse liver microsomes assessed as 3-dehydromitragynine formation at 1 uM incubated for 60 mins in presence of ketoconazole by LC-MS/MS analysis; format: ADME, Microsome; settings: 1 h
# [6] = Drug metabolism in C57BL/6J mouse plasma assessed as mitragynine pseudoindoxyl formation at 30 mg/kg, po measured after 20 mins by LC-MS/MS analysis; format: ADME, organism-based; settings: in vivo
# [7] = Drug metabolism in C57BL/6J mouse liver microsomes assessed as 3-dehydromitragynine formation at 1 uM incubated for 60 mins by LC-MS/MS analysis; format: ADME, Microsome; settings: 1 h
# Cytochrome P450 3A [8] = target: Cytochrome P450 3A (Homo sapiens, UniProt P08684+P20815+Q9HB55+P24462); test: Metabolic stability in human liver microsomes assessed as CYP3A-mediated decomposition by measuring half life at 1 uM incubated for 60 mins in presence of ketoconazole by LC-MS/MS analysis; format: ADME, Microsome; settings: 1 h
# Mus musculus [9] = test: Antinociceptive activity in po dosed 129Sv6 mouse model assessed as peak effect measured at 15 mins by radiant heat tail flick assay; format: functional; settings: 129Sv6, 0.25 h
# [10] = Drug metabolism in C57BL/6J mouse brain assessed as 3-dehydromitragynine formation at ED80, po; format: ADME, tissue-based
# Mus musculus [11] = test: Antinociceptive activity in sc dosed C57BL/6J mouse model assessed as time required for peak effect at ED50 by radiant heat tail flick assay; format: functional
# [12] = Drug metabolism in human S9 fraction assessed as 3-dehydromitragynine formation at 1 uM incubated for 60 mins in presence of NADPH by LC-MS/MS analysis; format: ADME, subcellular; settings: s9, 1 h
# [13] = Drug metabolism in human S9 fraction assessed as compound depletion at 1 uM incubated for 60 mins in presence of NADPH by LC-MS/MS analysis; format: ADME, subcellular; settings: s9, 1 h
# [14] = Drug metabolism in C57BL/6J mouse brain assessed as mitragynine pseudoindoxyl formation at 30 mg/kg, po measured after 20 mins by LC-MS/MS analysis; format: ADME, organism-based; settings: in vivo
# [15] = Drug metabolism in 129Sv6 mouse plasma assessed as 3-dehydromitragynine formation at ED80, po; format: ADME, cell-free
# Mus musculus [16] = test: Antinociceptive activity in po dosed 129Sv6 mouse model assessed as time required for peak effect at ED50 by radiant heat tail flick assay; format: functional
# [17] = Drug metabolism in C57BL/6J mouse liver microsomes assessed as 3-dehydromitragynine formation at 1 uM incubated for 60 mins in presence of ketoconazole by LC-MS/MS analysis; format: ADME, Microsome; settings: 1 h
# Cytochrome P450 3A [18] = target: T1, Cytochrome P450 3A; test: Metabolic stability in C57BL/6J mouse liver microsomes assessed as CYP3A-mediated decomposition by measuring half life at 1 uM incubated for 60 mins in presence of ketoconazole by LC-MS/MS analysis; format: ADME, Microsome; settings: 1 h
# [19] = Drug metabolism in 129Sv6 mouse liver microsomes assessed as mitragynine pseudoindoxyl formation at 1 uM incubated for 60 mins by LC-MS/MS analysis; format: ADME, Microsome; settings: 1 h
# [20] = Drug metabolism in C57BL/6J mouse liver microsomes assessed as mitragynine pseudoindoxyl formation at 1 uM incubated for 60 mins by LC-MS/MS analysis; format: ADME, Microsome; settings: 1 h
# [21] = Drug metabolism in 129Sv6 mouse brain assessed as 3-dehydromitragynine formation at ED80, po; format: ADME, tissue-based
compound,measurement,setting,value
CC[C@@H]1CN2CCc3c([nH]c4cccc(OC)c34)[C@@H]2C[C@@H]1/C(=C\OC)C(=O)OC,t1/2,Cytochrome P450 3A [1],25.2 min
same,Activity,Mus musculus [2],Active
same,Drug metabolism,[3],Metabolite_Detected
same,Activity,Mus musculus [4],Active
same,Drug metabolism,[5],Metabolite_Detected
same,Drug metabolism,[6],20 nM
same,Drug metabolism,[7],Metabolite_Detected
same,t1/2,Cytochrome P450 3A [8],37.4 min
same,ED50,Mus musculus [9],4 mg/kg
same,Drug metabolism,[10],0.094 µM
same,Time,Mus musculus [11],15 min
same,Drug metabolism,[12],Metabolite_Detected
same,Drug metabolism,[13],Metabolite_Detected
same,Drug metabolism,[14],40 nM
same,Drug metabolism,[15],0.028 µM
same,Time,Mus musculus [16],15 min
same,Drug metabolism,[17],Metabolite_Detected
same,t1/2,Cytochrome P450 3A [18],35.8 min
same,Drug metabolism,[19],Metabolite_Detected
same,Drug metabolism,[20],Metabolite_Detected
same,Drug metabolism,[21],0.035 µM
